# Data as given in US10266857B2, “Method for producing Nε-acyl-L-lysine” (AJINOMOTO CO., INC., priority 2015, dated 2019).
# Tests used:
# RmELA = assay: Acyl lysine hydrolysis (substrate specificity of purified RmELA); format: biochemical, Rhodothermus marinus; details: for hydrolysis (degradation) activity of the enzyme for the acyl lysine, in words: 4 mM substrate, pH 7.0, 37° C.; for Hydrolysis activity: acyl lysine 4 mM, 100 mM Tris-HCl (pH 7.0), 37° C., 1 U = 1 μmol lysine per 1 minute
# Experimental: To look into the substrate specificity of the acyl lysine hydrolysis of this enzyme, the reactivity of the enzyme as described herein for various kinds of acyl lysines was examined. […] Activity measurement was performed with the various kinds of acyl lysines (4 mM) and 100 mM Tris-HCl (pH 7.0) at 37° C., and the activity was calculated by measuring the concentration of lysine produced along with the degradation of the acyl lysines. For the measurement of L-lysine, BF-5 and a lysine electrode (manufactured by Oji Scientific Instruments Co., Ltd.) was used, whereas for the measurement of D-lysine, an amino acid analyzer (manufactured by Hitachi, Ltd.) was used. Here, 1 U was defined as an enzyme amount that releases 1 μmol lysine from each of the acyl lysines (per 1 minute).
# [1] = Synthesis reaction of Nε-octanoyl-L-lysine by RmELA enzymatic solution, L-lysine consumption; format: biochemical
# Experimental: Using the RmELA enzymatic solution prepared by the method described in Example 7, the synthesis reaction of Nε-octanoyl-L-lysine was carried out. A 100 ml of a reaction solution was prepared so as to give final concentrations of 300 mmol/L octanoic acid, 300 mmol/L L-lysine hydrochloride, 0.1 mmol/L ZnSO4, and 2.1 U/ml the RmELA enzymatic solution and was stirred at 300 rpm using a 200 ml jar fermenter. The pH was adjusted to be 7.0 using 1 N of NaOH, and the reaction temperature was adjusted to be 50° C.
# During the reaction, the reaction solution was sampled over time, and an L-lysine concentration within the reaction solution was measured. […] When the reaction solution after 23 hours was analyzed by HPLC, Nε-octanoyl-L-lysine was produced by 80% in terms of yield relative to L-lysine. […] No peak of Nα-octanoyl-L-lysine was detected.
# The substrate (octanoic acid and L-lysine hydrochloride) final concentration in the reaction condition was changed to (1) 500 mmol/L, (2) 750 mmol/L, and (3) 1,000 mmol/L to carry out the synthesis reaction of Nε-octanoyl-L-lysine.
# During the reaction, the reaction solution was sampled over time, and an L-lysine concentration in the reaction solution was measured. […] Respective consumption rates relative to the charged L-lysine and reaction times were (1) 87% after 35 hours, (2) 92% after 35 hours, and (3) 94% after 57 hours.
# [2] = Synthesis reaction of Nε-dodecanoyl-L-lysine, L-lysine consumption; format: biochemical; details: 300 mmol/L substrates, 3 U/ml, after 24 hours
# Experimental: Using the RmELA enzymatic solution prepared by the method described in Example 7, the synthesis reaction of Nε-dodecanoyl-L-lysine was carried out. A 200 ml of a reaction solution was prepared so as to give final concentrations of 300 mmol/L dodecanoic acid, 300 mmol/L L-lysine hydrochloride, 0.1 mmol/L ZnSO4, 10% methanol, and 3 U/ml the RmELA enzymatic solution and was stirred at 300 rpm using a 500 ml jar fermenter. The pH was adjusted to be 7.0 using 1 N of NaOH, and the reaction temperature was adjusted to be 55° C.
# Nα-dodecanoyl-L-lysine was produced by only 0.06% in terms of yield relative to L-lysine.
# For the measurement of lysine, BF-5 and a lysine electrode (manufactured by Oji Scientific Instruments Co., Ltd.) were used. The HPLC analysis was performed with Column YMC-UltraHT Pro C18, 50×2.0 mm I.D. (manufactured by YMC Co., Ltd.), a mobile layer of NaH2PO4 (pH 3.0)/MeOH=3/7, and UV 210 nm.
# When the reaction pH was changed from pH 7.0 to pH 6.0, and the synthesis reaction of Nε-dodecanoyl-L-lysine was carried out by a method similar to the above, 96% of the charged L-lysine was consumed after 24 hours (FIG. 7). […] At pH 7.0, dodecanoic acid in the reaction solution was emulsified to give a high viscosity solution. […]
# [3] = format: biochemical; details: incubated at 30° C. to 100° C. for 1 hour
# Experimental: Using the purified enzyme acquired by the method described in Example 3, the optimum reaction temperature and temperature stability of the enzyme with Nε-acetyl-L-lysine as a substrate were examined.
# Subsequently, remaining activity after being incubated at certain temperatures (30° C. to 100° C.) for 1 hour was measured. The activity was represented as relative activity (%) with the activity value before the incubation as 100.
# [4] = Storage stability of enzymatic solutions; format: biochemical; details: stored at 4° C., 15° C. and 25° C.
# Experimental: A culture solution of the C. glutamicum expression strain of RmELA acquired by the method described in Example 1, 1-6) was centrifuged to collect the supernatant, which was membrane-sterilized with a 0.45 μm filter to obtain an RmELA enzymatic solution. A WDK010/pPKT-tatABC strain (WO 2010/067871) as a C. glutamicum expression strain of ELA native to Streptomyces mobarensis (SmELA) was cultured and sterilized by a similar procedure to obtain an SmELA enzymatic solution.
# These enzymatic solutions were stored at temperatures of 4° C., 15° C., and 25° C., and the transition of enzyme activity was examined. The activity was represented as relative activity (%) with the activity value when the storage started as 100.
# Optimum pH of the enzyme = format: biochemical; details: 37° C., acetate, Tris-HCl and borate buffers, pH 4.2 to 9.8
# Experimental: Using the purified enzyme acquired by the method described in Example 3, the optimum pH and pH stability of the enzyme with Nε-acetyl-L-lysine as a substrate were examined.
# Using various kinds of buffers (pH 4.2 to 6.0: acetate buffers, pH 7.2 to 8.8: Tris-HCl buffers, and pH 9.3 to 9.8: borate buffers) at 37° C., activity at various pH was measured. The activity was represented as relative activity (%) with the maximum activity value as 100. The optimum pH of this enzyme was pH 5.0.
# [5] = Enzyme activity after heat sterilization of the culture solution; format: biochemical; details: 75° C. for 30 minutes
# Experimental: Whether a C. glutamicum expression strain of RmELA could be sterilized with heat while maintaining the enzyme activity was examined. The culture solution acquired by the method described in Example 1, 1-6) in an amount of 150 μl was dispensed to a PCR tube and was subjected to heat treatment at 75° C. for 30 minutes using a block heater to obtain a heat treatment culture solution. The heat treatment culture solution and the heat treatment culture solution serially diluted (with a dilution rate of ×10^2) with a physiological saline solution (0.85% of NaCl) were applied to a CM2G agar medium (10 g of a yeast extract, 10 g of polypeptone, 5 g of glucose, 5 g of sodium chloride, 0.2 g of DL-methionine, 15 g of agar, pH 7.2, and filled up to 1 L with water) containing 25 mg/l of kanamycin, and the number of formed colonies was counted to examine the number of living bacteria of the RmELA expression strain. As a result, no colony formation was detected. […] When a culture solution without the heat treatment was examined by the same method, the number of living bacteria was 7.0×10^10 cfu/ml.
# Subsequently, the culture solution and the heat treatment culture solution explained above were centrifuged individually, the supernatants were collected, and the hydrolysis activity of Nε-acetyl-L-lysine within the supernatants was measured.
Molecule,"hydrolysis (degradation) activity of the enzyme for the acyl lysine, in words (RmELA)",Hydrolysis activity (RmELA) [U/mg],further results
"CC(=O)N[C@@H](CCCCN)C(=O)O [Nα-Acetyl-L-Lys, Nα-acetyl-L-lysine]",did not exhibit hydrolysis activity,0.0,
"NCCCC[C@H](NC(=O)c1ccccc1)C(=O)O [Nα-Benzoyl-L-Lys, Nα-benzoyl-L-lysine]",did not exhibit hydrolysis activity,0.0,
N[C@@H](CCCCNC(=O)[C@@H](N)CCC(=O)O)C(=O)O [Nε-(αGlu)-L-Lys],,36.8,
N[C@@H](CCCCNC(=O)CC[C@H](N)C(=O)O)C(=O)O [Nε-(γGlu)-L-Lys],,41.3,
"CC(=O)NCCCC[C@@H](N)C(=O)O [Nε-Acetyl-D-Lys, Nε-acetyl-D-lysine]",did not exhibit hydrolysis activity,0.0,
"CC(=O)NCCCC[C@H](N)C(=O)O [Nε-Acetyl-L-Lys, Nε-acetyl-L-lysine]",exhibited degradation activity,17.5,
"N[C@@H](CCCCNC(=O)c1ccccc1)C(=O)O [Nε-Benzoyl-L-Lys, Nε-benzoyl-L-lysine]",exhibited degradation activity,90.1,
"RmELA: amidohydrolase native to Rhodothermus marinus (NCBI; WP_012844854.1, SEQ ID NO: 1), Nε-acyl-L-lysine-specific aminoacylase (protein, listed as Rhodothermus marinus) MLLLPMQARGQADYVLVNGRLYTVDPAQPVAEAMAVRGDRILMVGTTAQLTAAYPDAPHIDLQGRAVVPGFIDAHAHLMGLGLSRLRADLTGTRSVEEILERLREFARQLPEGAWLLGRGWDQNDWPVKEFPTRQMLDEIFPERPVWLVRIDGHAAWANTAAIRRANPALLTEQIPDPEGGHIVRDAEGRLTGVFIDEAMDLIARHIPPPSEAELEEALRRAVAEANRFGLTGVHDAGASLKTIQGYRRAVDDGTLTLRLYVMVDGLGEAFDYFCEHGPLLDYGGRLTVRSVKFYIDGALGSRGAALLADYSDDPGNRGLLRHEPEVFADMVQRAMKCGFQVNTHAIGDRGVRVVLDAYEKALRTLGRTVGRHRVEHAQVVAPEDFARFAELDLIASMQPTHATSDMYWAEDRLGPERVRGAYAWRTFLEHGVRLAFGSDFPVELANPLLGFYAAITRQDAEGWPEGGWYPEQRLTREEALRAFTLDAAYAAFQEHELGSLTPGKYADFVVLSHDIMTVPPEQILQTRVLATFFGGRCVYHDPEAAGLCPASP",,,"charged L-lysine consumed ([1]; 300 mmol/L substrates, 2.1 U/ml, pH 7.0, 50° C., after 23 hours): 80%; consumption rate relative to the charged L-lysine ([1]; substrate 500 mmol/L, after 35 hours): 87%; consumption rate relative to the charged L-lysine ([1]; substrate 750 mmol/L, after 35 hours): 92%; consumption rate relative to the charged L-lysine ([1]; substrate 1,000 mmol/L, after 57 hours): 94%; charged L-lysine consumed ([2]; pH 6.0, 55° C.): 96%; charged L-lysine consumed ([2]; pH 7.0, 55° C.): 98%; temperature up to which no decrease in activity was shown [3]: up to 80 °C; transition of enzyme activity during storage [4]: did not decrease in enzyme activity; optimum pH (Optimum pH of the enzyme): 5.0; optimum pH (Optimum pH of the enzyme; listed as protein having the amino acid sequence of SEQ ID NO: 1): about 5; enzyme activity after heat treatment [5]: no decrease in enzyme activity"
